From patent EP4417607A1, “HETEROCYCLIC COMPOUND AS SOS1 INHIBITOR AND USES THEREOF” (Nanjing Zaiming Pharmaceutical Co., Ltd., priority 2021, dated 2023)

Experiments:
H358 cells = assay: H358 cell proliferation inhibition (CellTiter-Glo luminescent cell viability assay); format: cell-based; conditions: Homo sapiens, NCI-H358, 168 h, 7 days
Procedure, shortened: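 H358 cells seeded at 3000 cells/well in RPMI1640/10% FBS, treated with compound for 7 days at 37 °C/5% CO2. Viability read by CellTiter-Glo 3D luminescence, normalised to cell-free (100%) and compound-free (0%) controls; IC50 fitted from 8 concentrations by four-parameter curve.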

[1] = tested on: p-ERK pathway in H358 cells; assay: p-ERK pathway inhibition in H358 cells (Advanced phospho-ERK (Thr202/Tyr204) cellular kit, HTRF); format: cell-based; conditions: Homo sapiens, NCI-H358, 1 h compound incubation
Procedure, shortened: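 Serum-starved H358 cells (50000/well, overnight) treated with compound for 1 h at 37 °C, then lysed; phospho-ERK (Thr202/Tyr204) read by HTRF (665/620 nm ratio). Cell-free wells set 100% inhibition, untreated cells 0%; IC50 fitted from 8 concentrations by four-parameter curve.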

| SMILES | IC50 (H358 cells) | IC50 [1] |
| --- | --- | --- |
| COc1c(=O)n(C2(CC#N)CC2)cc2c(N[C@H](C)c3cccc(C(F)F)c3F)nc(C)nc12 [Example 32, (R)-2-(1-(4-((1-(3-(difluoromethyl)-2-fluorophenyl)ethyl)amino)-8-methoxy-2-methyl-7-oxopyrido[4,3-d]pyrimidine-6(7H)-yl)cyclopropyl)acetonitrile] | 134 nM | 48.9 nM |
| Cc1nc(N[C@H](C)c2cccc(C(F)F)c2F)c2cn(C3(CF)CC3)c(=O)c(N3CCN(CC(F)(F)F)CC3)c2n1 [Example 131, (R)-4-((1-(3-(difluoromethyl)-2-fluorophenyl)ethyl)amino)-6-(1-(fluoromethyl)cyclopropyl)-2-methyl-8-(4-(2,2,2-trifluoroethyl)piperazin-1-yl)pyrido[4,3-d]pyrimidine-7(6H)-one] | 88.4 nM | 56.5 nM |
| Cc1nc(N[C@H](C)c2cccc(C(F)F)c2F)c2cn(C3(CF)CC3)c(=O)c(N3CC4CC(C3)O4)c2n1 [Example 174] | 36.2 nM | 20.4 nM |
| Cc1nc(N[C@H](C)c2cccc(C(F)F)c2F)c2cn(C3(CF)CC3)c(=O)c(N3[C@@H](C)COC[C@@H]3C)c2n1 [Example 127, 4-(((R)-1-(3-(difluoromethyl)-2-fluorophenyl)ethyl)amino)-8-((3S,5S)-3,5-dimethylmorpholinyl)-6-(1-(fluoromethyl)cyclopropyl)-2-methylpyrido[4,3-d]pyrimidine-7(6H)-one] | 90 nM | 72.5 nM |
| Cc1nc(N[C@H](C)c2cccc(C(F)F)c2F)c2cn(N3CCOCC3)c(=O)c(-c3cnn4c3COCC4)c2n1 [Example 138, (R)-4-((1-(3-(difluoromethyl)-2-fluorophenyl)ethyl)amino)-8-(6,7-dihydro-4H-pyrazolo[5,1-c][1,4]oxazin-3-yl)-2-methyl-6-morpholinylpyrido[4,3-d]pyrimidine-7(6H)-one] | 115 nM | 63.1 nM |
| COc1ccc(-c2c(=O)n(N3CCOCC3)cc3c(N[C@H](C)c4cccc(C#N)c4C)nc(C)nc23)cn1 [Example 162] | 96.5 nM | 77.5 nM |
| Cc1nc(N[C@H](C)c2cccc(S(F)(F)(F)(F)F)c2)c2cn(N3CCOCC3)c(=O)c(-c3ccc(C#N)nc3)c2n1 [Example 22, (R)-5-(2-methyl-6-morpholinyl-7-oxo-4-((1-(3-(pentafluoro-λ^6-sulfanyl)phenyl)ethyl)amino)-6,7-dihydropyrido[4,3-d]pyrimidin-8-yl)pyridinecarbonitrile] | 129 nM | 180 nM |
| CC(=O)Nc1c(=O)n(C2(CF)CC2)cc2c(N[C@H](C)c3cccc(C(F)F)c3F)nc(C)nc12 [Example 83, (R)-N-(4-((1-(3-(difluoromethyl)-2-fluorophenyl)ethyl)amino)-6-(1-(fluoromethyl)cyclopropyl)-2-methyl-7-oxo-6,7-dihydropyrido[4,3-d]pyrimidine-8-yl)acetamide] | 90.9 nM | 92 nM |
| COc1c(=O)n(C2(CF)CC2)cc2c(N[C@H](C)c3cccc([N+](=O)[O-])c3C)nc(C)nc12 [Example 29, (R)-6-(1-(fluoromethyl)cyclopropyl)-8-methoxy-2-methyl-4-((1-(2-methyl-3-nitrophenyl)ethyl)amino)pyrido[4,3-d]pyrimidine-7(6H)-one] | 78.7 nM | 71 nM |
| Cc1nc(N[C@H](C)c2cccc(C(F)F)c2F)c2cn(C3(CF)CC3)c(=O)c(N3CCOC[C@@H]3CO)c2n1 [Example 135, 4-(((R)-1-(3-(difluoromethyl)-2-fluorophenyl)ethyl)amino)-6-(1-(fluoromethyl)cyclopropyl)-8-((S)-3-(hydroxymethyl)morpholinyl)-2-methylpyrido[4,3-d]pyrimidine-7(6H)-one] | 65.2 nM | 59 nM |
| Cc1nc(N[C@H](C)c2cccc(C(F)F)c2F)c2cn(C3(CF)CC3)c(=O)c(Oc3ccnc(C#N)c3)c2n1 [Example 72, (R)-4-((4-((1-(3-(difluoromethyl)-2-fluorophenyl)ethyl)amino)-6-(1-(fluoromethyl)cyclopropyl)-2-methyl-7-oxo-6,7-dihydropyrido[4,3-d]pyrimidin-8-yl)oxy)pyridinecarbonitrile] | 73.8 nM | 72.4 nM |
| Cc1nc(N[C@H](C)c2cccc(C(F)F)c2F)c2cn(C3(CF)CC3)c(=O)c(C3(O)CCOC3)c2n1 (stereo partly drawn) [Example 139, 4-(((R)-1-(3-(difluoromethyl)-2-fluorophenyl)ethyl)amino)-6-(1-(fluoromethyl)cyclopropyl)-8-(3-hydroxytetrahydrofuran-3-yl)-2-methylpyrido[4,3-d]pyrimidine-7(6H)-one] | 86.6 nM | 81.2 nM |
| CC(=O)N1CCC(Oc2c(=O)n(C3(CF)CC3)cc3c(N[C@H](C)c4cccc(C(F)F)c4F)nc(C)nc23)CC1 [Example 73, (R)-8-((1-acetylpiperidin-4-yl)oxy)-4-((1-(3-(difluoromethyl)-2-fluorophenyl)ethyl)amino)-6-(1-(fluoromethyl)cyclopropyl)-2-methylpyrido[4,3-d]pyrimidine-7(6H)-one] | 71.8 nM | 104 nM |

More lines, now with the values ahead:

| IC50 (H358 cells) | IC50 [1] | SMILES |
| --- | --- | --- |
| 45.2 nM | 34.5 nM | Cc1nc(N[C@H](C)c2cccc(C(F)(F)F)c2C)c2cn(N3CCOCC3)c(=O)c(N3CCN(C)CC3)c2n1 [Example 70, (R)-2-methyl-4-((1-(2-methyl-3-(trifluoromethyl)phenyl)ethyl)amino)-8-(4-methylpiperazin-1-yl)-6-morpholinepyrido[4,3-d]pyrimidine-7(6H)-one] |
| 17.4 nM | 42.4 nM | Cc1nc(N[C@H](C)c2cccc(C(F)(F)F)c2C)c2cn(C3(CF)CC3)c(=O)c(N3CCOC[C@@H]3C)c2n1 [Example 56, 6-(1-(fluoromethyl)cyclopropyl)-2-methyl-4-(((R)-1-(2-methyl-3-(trifluoromethyl)phenyl)ethyl)amino)-8-((S)-3-methylmorpholine)pyrido[4,3-d]pyrimidine-7(6H)-one] |
| 50.5 nM | 41.8 nM | Cc1nc(N[C@H](C)c2cccc(C(F)F)c2F)c2cn(C3(CF)CC3)c(=O)c(N3CCO[C@H](C)C3)c2n1 [Example 42, 4-(((R)-1-(3-(difluoromethyl)-2-fluorophenyl)ethyl)amino)-6-(1-(fluoromethyl)cyclopropyl)-2-methyl-8-((R)-2-methylmorpholine)pyrido[4,3-d]pyrimidine-7(6H)-one] |
| 44 nM | 55.6 nM | Cc1nc(N[C@H](C)c2cccc(C(F)F)c2F)c2cn(C3(CF)CC3)c(=O)c(N3CCc4cn(C)nc4C3)c2n1 [Example 98, (R)-4-((1-(3-(difluoromethyl)-2-fluorophenyl)ethyl)amino)-6-(1-(fluoromethyl)cyclopropyl)-2-methyl-8-(2-methyl-2,4,5,7-tetrahydro-6H-pyrazolo[3,4-c]pyridin-6-yl)pyrido[4,3-d]pyrimidine-7(6H)-one] |
| 46 nM | 87.4 nM | Cc1nc(N[C@H](C)c2cccc(C(F)F)c2F)c2cn(N3CCOCC3)c(=O)c(-c3cnc4ccnn4c3)c2n1 [Example 120, (R)-4-((1-(3-(difluoromethyl)-2-fluorophenyl)ethyl)amino)-2-methyl-6-morpholino-8-(pyrazolo[1,5-a]pyrimidin-6-yl)pyrido[4,3-d]pyrimidine-7(6H)-one] |
| 37.3 nM | 84.3 nM | Cc1nc(N[C@H](C)c2cccc(C(F)F)c2F)c2cn(C3(CF)CC3)c(=O)c(N3CCN(CC4CC4)CC3)c2n1 [Example 132, (R)-8-(4-(cyclopropylmethyl)piperazin-1-yl)-4-((1-(3-(difluoromethyl)-2-fluorophenyl)ethyl)amino)-6-(1-(fluoromethyl)cyclopropyl)-2-methylpyrido[4,3-d]pyrimidine-7(6H)-one] |
| 50.5 nM | 95.5 nM | CCN(CC)c1c(=O)n(C2(CF)CC2)cc2c(N[C@H](C)c3cccc(C(F)F)c3F)nc(C)nc12 [Example 96, (R)-8-(diethylamino)-4-((1-(3-(difluoromethyl)-2-fluorophenyl)ethyl)amino)-6-(1-(fluoromethyl)cyclopropyl)-2-methylpyrido[4,3-d]pyrimidine-7(6H)-one] |
| 34.9 nM | 70 nM | Cc1nc(N[C@H](C)c2cccc(C(F)F)c2F)c2cn(C3(CF)CC3)c(=O)c(N3CCN(CC4COC4)CC3)c2n1 [Example 133, (R)-4-((1-(3-(difluoromethyl)-2-fluorophenyl)ethyl)amino)-6-(1-(fluoromethyl)cyclopropyl)-2-methyl-8-(4-(oxetan-3-ylmethyl)piperazin-1-yl)pyrido[4,3-d]pyrimidine-7(6H)-one] |
| 13.3 nM | 22.4 nM | Cc1nc(N[C@H](C)c2cccc([N+](=O)[O-])c2C)c2cn(C3(CF)CC3)c(=O)c(N3CCOCC3)c2n1 [Example 117, (R)-6-(1-(fluoromethyl)cyclopropyl)-2-methyl-4-((1-(2-methyl-3-nitrophenyl)ethyl)amino)-8-morpholinylpyrido[4,3-d]pyrimidine-7(6H)-one] |
| 10.1 nM | 62.6 nM | CC(=O)N1CCN(c2c(=O)n(C3(CF)CC3)cc3c(N[C@H](C)c4cccc(C(F)F)c4F)nc(C)nc23)CC1 [Example 49] |
| 54.1 nM | 131 nM | Cc1nc(N[C@H](C)c2cccc([N+](=O)[O-])c2C)c2cn(C3(CF)CC3)c(=O)cc2n1 [Example 13] |
| 35.6 nM | 59.8 nM | [2H][C@](C)(Nc1nc(C)nc2c(N3CCC(S(C)(=O)=O)CC3)c(=O)n(C3(CF)CC3)cc12)c1cccc(C(F)F)c1F [Example 125, (R)-4-((1-(3-(difluoromethyl)-2-fluorophenyl)ethyl-1-d)amino)-6-(1-(fluoromethyl)cyclopropyl)-2-methyl-8-(4-(methylsulfonyl)piperidin-1-yl)pyrido[4,3-d]pyrimidine-7(6H)-one] |
